Experimental data reported in PMC12072072 (International Journal of Molecular Sciences, 2025).
Like-named read-outs stand apart in the source and are kept apart here.

Columns and labels:
[1] = tested on: CHO (Chinese hamster ovary); assay: MTT assay, CHO cells; type: cell-based; details: for IC50: Cricetulus griseus, CHO, MTT assay, CHO cells, value (standard deviation), read-out: IC50 [μM] (±s) CHO; for Selectivity Index (SI) CHO: IC50 of HDFs / IC50 of CHO
Method: (§1) Each medium was supplemented with 10% fetal bovine serum, 1% L-glutamine, and 1% penicillin/streptomycin solution. The cell lines were incubated at 37 °C in a humidified atmosphere containing 5% CO2. Cells were counted using the Fuchs–Rosenthal counting chamber (hemocytometer) with modifications.
(§2) The final product of this reaction gives violet formazan crystals. The number of live cells is proportional to the amount of formazan and is represented by the violet dye reagent. The details of the experiments are given, e.g., in [54].
(§3) Statistical analyses for the cytotoxic activity were carried out using the nonparametric Kruskal–Wallis H test for unpaired data and ANOVA Friedman two-way analysis of variance test for paired data. Statistical significance was tested using Dunn’s post-hoc test. The IC50 values compared to the control IC50 were calculated using GraphPad Prism v. 10.1.1. software.

[2] = tested on: A-549 (human lung carcinoma); assay: MTT assay, A-549 cells; type: cell-based; details: for IC50: Homo sapiens, A549, MTT assay, A-549 cells, value (standard deviation), read-out: IC50 [μM] (±s) A-549; for Selectivity Index (SI) A-549: IC50 of HDFs / IC50 of A-549
Method: as §1, §2, §3

[3] = tested on: PC-3 (human prostate carcinoma); assay: MTT assay, PC-3 cells; type: cell-based; details: for IC50: PC-3 cells, value (standard deviation), read-out: IC50 [μM] (±s) PC-3; for Selectivity Index (SI) PC-3: IC50 of HDFs / IC50 of PC-3
Method: as §1, §2, §3

[4] = tested on: SKOV-3 (human ovarian carcinoma); assay: MTT assay, SKOV-3 cells; type: cell-based; details: for IC50: SKOV-3 cells, value (standard deviation), read-out: IC50 [μM] (±s) SKOV-3; for Selectivity Index (SI) SKOV-3: IC50 of HDFs / IC50 of SKOV-3
Method: as §1, §2, §3

[5] = tested on: HDFs (human dermal fibroblasts); assay: MTT assay, HDFs (normal cells); type: cell-based; details: Fibroblast, value (standard deviation), read-out: IC50 [μM] (±s) HDFs
Method: as §1, §2, §3

[6] = tested on: PC-3 (human prostate carcinoma); assay: Cell Death Detection ELISA Plus, PC-3; type: cell-based; details: DNA fragmentation ELISA, sample vs negative control; tested at 0.1, 1.0 and 10.0 µg/mL, concentration of the value not stated
Method: (§4) The induction of apoptosis by tested compounds was determined with Cell Death Detection ELISA Plus from Roche Diagnostics GmbH (Mannheim, Germany).
(§5) The Cell Death Detection ELISA PLUS photometric enzyme immunoassay is used to quantitatively in vitro determination of cytoplasmic histone-associated DNA fragments (mono- and oligonucleosomes) after induced cell death. The kit contains a stop solution that allows users to terminate the substrate reaction and run the assay under defined conditions, making it suitable for high-throughput applications. This kit can be used for the relative quantification of histone-complexed DNA fragments (mono- and oligonucleosomes) out of the cytoplasm of cells after the induction of apoptosis or when released from necrotic cells. […] The antibodies used in the assay are not species-specific; therefore, the kit may be used to assay cells from various species. The details of the experiments are given in [74]. As an internal reference compound (cytostatic drug), camptothecin (topoisomerase I-inhibitor) was used in this study to induce apoptosis. The negative control is the sample without camptothecin treatment. […] Cells were counted using a Fuchs–Rosenthal counting chamber (hemocytometer) with modifications. The apoptotic index was calculated based on the enrichment of mono- and oligonucleosomes according to the following equation:apoptotic index = [{A405(sample) − A490(sample)}/{A405(negative control) − A490(negative control)}]

[7] = tested on: SKOV-3 (human ovarian carcinoma); assay: Cell Death Detection ELISA Plus, SKOV-3; type: cell-based; details: DNA fragmentation ELISA, sample vs negative control; tested at 0.1, 1.0 and 10.0 µg/mL, concentration of the value not stated
Method: as §4, §5

A-549, PC-3, and SKOV-3 = assay: MTT assay, statements over the cancer cell lines together; type: cell-based, human; details: for IC50: MTT assay, A-549, PC-3 and SKOV-3 together, summary of Table 3, read-out: IC50 stated over the cancer cell lines together; for Selectivity Index stated over the tested cell lines together: IC50 of HDFs / IC50 of cell line, text summary of Table 4
Method: as §1, §2

Solubility (remark) = type: physicochemical; details: remark among limitations, solvent not stated
[8] = Homo sapiens, SK-OV-3, MTT assay

| SMILES | IC50 [1] [µM] | Selectivity Index (SI) CHO [1] | IC50 [2] [µM] | Selectivity Index (SI) A-549 [2] | IC50 ([3]; Homo sapiens, PC-3, MTT assay) [µM] | Selectivity Index (SI) PC-3 [3] | IC50 ([3]; MTT assay) [µM] | IC50 [4, 8] [µM] | Selectivity Index (SI) SKOV-3 [4] | IC50 ([4]; MTT assay) [µM] | IC50 [5] [µM] | Apoptotic Index (AI) PC-3 [6] | Apoptotic Index (AI) SKOV-3 [7] | IC50 (A-549, PC-3, and SKOV-3; Homo sapiens) [µM] | Selectivity Index stated over the tested cell lines together (A-549, PC-3, and SKOV-3) | solubility (Solubility (remark)) | IC50 (A-549, PC-3, and SKOV-3) [µM] |
| --- | --- | --- | --- | --- | --- | --- | --- | --- | --- | --- | --- | --- | --- | --- | --- | --- | --- |
| CC(=O)O[C@H]1CC[C@@]2(C)C(CC[C@]3(C)C2C[C@H](O)[C@]24OC(=O)[C@@]5(CCC(C)(C)CC52)CC[C@]43C)C1(C)C (stereo partly drawn) [Compound 2, 3β-Acetoxy-12α-hydroxyolean-28-oic acid 28β→13β-olide] | 4.19 | 1.79 | 4.68 | 1.60 | 1.88 | 2.30 | 3.26 | 1.73 | 2.54 | 2.96 | 7.51 | 4.76 (0.02) | 4.71 (0.11) | 1 to 9 | exceeds 2 |  |  |
| CC(=O)O[C@H]1CC[C@@]2(C)C(CC[C@]3(C)C2CC(=O)[C@]24OC(=O)[C@@]5(CCC(C)(C)CC52)CC[C@@]34C)C1(C)C (stereo partly drawn) [Compound 4, 3β-Acetoxy-12-oxoolean-28-oic acid 28β→13β-olide] | 52.7 | 0.79 | 24.7 | 1.70 | 25.9 | 1.62 |  | 22.8 | 1.84 |  | 42 |  |  | 24 to 38 | ~2 |  |  |
| CC1(C)CC[C@@]23CC[C@@]4(C)[C@]5(C)CCC6C(C)(C)[C@@H](O)CC[C@]6(C)C5CC(=O)[C@]4(OC2=O)C3C1 (stereo partly drawn) [Compound 5, 3β-Hydroxy-12-oxoolean-28-oic acid 28β→13β-olide] | 38.2 | 1.35 | 38 | 1.36 | 31 | 1.67 |  | 37 | 1.40 |  | 51.8 |  |  | 24 to 38 |  |  |  |
| CC(=O)OC1CCC2(C)C(CCC3(C)C2CC(=NO)C24OC(=O)C5(CCC(C)(C)CC52)CCC34C)C1(C)C (stereo not drawn) [Compound 6, 3β-Acetoxy-12-hydroxyiminoolean-28-oic acid 28β→13β-olide] |  | 0.71 | 1.27 | 3.08 | 1.88 | 2.08 |  | 1.73 | 2.26 |  | 3.91 | 7.28 (0.02) | 7.22 (0.06) | 1 to 9 | exceeds 2 |  |  |
| CC1(C)CC[C@@]23CC[C@@]4(C)[C@]5(C)CCC6C(C)(C)C(=O)CC[C@]6(C)C5CC(=O)[C@]4(OC2=O)C3C1 (stereo partly drawn) [Compound 7, 3,12-Dioxoolean-28-oic acid 28β→13β-olide] | > 100 |  | 66.1 |  | > 100 |  |  | > 100 |  |  | > 100 |  |  | > 100 |  | poor solubility |  |
| CC1(C)CC[C@@]23CC[C@@]4(C)[C@]5(C)CCC6C(C)(C)[C@@H](O)CC[C@]6(C)C5C/C(=N\O)[C@]4(OC2=O)C3C1 (stereo partly drawn) [Compound 8, 3β-Hydroxy-12-hydroxyiminoolean-28-oic acid 28β→13β-olide] | > 100 |  | > 100 |  | > 100 |  |  | > 100 |  |  | > 100 |  |  | > 100 |  | poor solubility |  |
| CC1(C)CC[C@@]23CC[C@]4(C)[C@@](OC2=O)(C3C1)[C@@H](Br)CC1[C@@]2(C)CC[C@H](O)C(C)(C)C2CC[C@]14C (stereo partly drawn) [Compound 9, 12α-Bromo-3β-hydroxyolean-28-oic acid 28β→13β-olide] | 42 | 1.21 | 29.9 | 1.71 | 26.1 | 1.95 |  | 26.4 | 1.93 |  | 51 |  |  | 11 to 90 | ~2 |  |  |
| CC1(C)CC[C@@]23CC[C@]4(C)[C@@](OC2=O)(C3C1)[C@@H](Br)CC1[C@@]2(C)CCC(=O)C(C)(C)C2CC[C@]14C (stereo partly drawn) [Compound 10, 12α-Bromo-3-oxoolean-28-oic acid 28β→13β-olide] | 21.4 | 1.83 | 15.6 | 2.51 | 12.9 | 3.02 |  | 12.1 | 3.24 |  | 39.1 | 5.82 (0.04) | 5.05 (0.03) | 11 to 90 | exceeds 2 |  | 12 to 15 |
| CC1(C)CC[C@@]23CC[C@]4(C)[C@@](OC2=O)(C3C1)[C@@H](Br)CC1[C@@]2(C)CCC(=NO)C(C)(C)C2CC[C@]14C (stereo partly drawn) [Compound 11] | 55.4 | 0.52 | 34.6 | 0.83 | 25.1 | 1.15 |  | 21.8 | 1.33 |  | 28.9 |  |  | 22 to 35 |  |  |  |
| C=C(C)C1CC[C@]2(C)C(C[C@H](Br)[C@]34OC(=O)[C@@]5(CCC(C)(C)CC53)CC[C@]42C)[C@@]1(C)CCC#N (stereo partly drawn) [Compound 12, 12α-Bromo-3-nitrilo-3,4-secoolean-4(23)-ene-28-oic acid 28β→13β-olide] | 9.23 | 0.99 | 7.88 | 1.15 | 6.27 | 1.46 |  | 6.22 | 1.47 |  | 9.13 | 5.43 (0.05) | 5.11 (0.01) |  |  |  | < 10 |
| CC1(C)CC[C@@]23CC[C@]4(C)[C@@](OC2=O)(C3C1)[C@@H](Br)CC1[C@@]2(C)CCC(=O)NC(C)(C)C2CC[C@]14C (stereo partly drawn) [Compound 13, 12α-bromo-3-oxo-3a-aza-A-homoolean-28-oic acid 28β→13β-olide] | > 100 |  | 89.3 | 1.00 | 73.1 | 1.22 |  | 75.8 | 1.18 |  | 89.4 |  |  | 11 to 90 |  | poor solubility |  |
| CC1(C)CC[C@@]23CC[C@]4(C)[C@@](OC2=O)(C3C1)[C@@H](Br)CC1[C@@]2(C)CCC(=S)NC(C)(C)C2CC[C@]14C (stereo partly drawn) [Compound 14, 12α-bromo-3-thioxo-3a-aza-A-homoolean-28-oic acid 28β→13β-olide] | 87 | 0.97 | 66.2 | 1.27 | 65.9 | 1.28 |  | 68.3 | 1.23 |  | 84.1 |  |  | 11 to 90 |  |  |  |
